Broadly, the IC50 is the concentration at which inhibition is half-maximal.

The text below walks through data of patent publication US8642594B2, “Substituted thieno[2,3-d]pyrimidines as HSP90 inhibitors” (Vernalis (R&D) Limited, priority 2003, dated 2014).

For one assay, the target named is T1, Human full-length Hsp90 (Homo sapiens, UniProt P08238).
T1 construct: E. coli expressed human full-length HSP90 protein, purified >95%; made in house; host or cells: E. coli
T1 sequence (P08238 whole entry): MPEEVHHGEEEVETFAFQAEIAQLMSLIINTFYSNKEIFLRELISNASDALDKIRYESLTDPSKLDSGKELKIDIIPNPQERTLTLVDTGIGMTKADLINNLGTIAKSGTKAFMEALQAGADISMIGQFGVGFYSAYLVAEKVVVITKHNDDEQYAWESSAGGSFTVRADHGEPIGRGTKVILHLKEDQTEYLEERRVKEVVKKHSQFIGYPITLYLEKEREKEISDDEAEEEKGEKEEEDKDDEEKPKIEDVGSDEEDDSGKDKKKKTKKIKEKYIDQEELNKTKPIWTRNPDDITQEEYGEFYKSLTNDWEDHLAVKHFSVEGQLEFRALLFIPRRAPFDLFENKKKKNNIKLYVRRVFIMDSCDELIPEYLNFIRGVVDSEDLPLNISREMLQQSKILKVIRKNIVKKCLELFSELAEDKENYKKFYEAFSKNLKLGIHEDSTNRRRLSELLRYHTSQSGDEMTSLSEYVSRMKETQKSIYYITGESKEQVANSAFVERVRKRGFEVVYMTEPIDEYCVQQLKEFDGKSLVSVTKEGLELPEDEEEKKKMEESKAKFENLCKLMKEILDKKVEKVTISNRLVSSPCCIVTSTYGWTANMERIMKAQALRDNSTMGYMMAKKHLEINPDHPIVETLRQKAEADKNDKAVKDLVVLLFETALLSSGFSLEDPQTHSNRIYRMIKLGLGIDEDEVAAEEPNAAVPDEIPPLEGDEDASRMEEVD
In words: Fluorescence polarization assay (competitive binding to HSP90, probe RBT0045864-FAM).
Details: not given
An outline of the steps:
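Competitive fluorescence polarization: test compound displaces FAM-labelled probe RBT0045864-FAM (200 nM working solution) from HSP90 after equilibration, and anisotropy change is measured. Compounds serially diluted; BSA-containing buffer; standard compound as positive control; Z′ from zero and positive controls.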
(In general: Polarisation of emitted light reports the rotation of a fluorescent probe.)
Turning to `CCNC(=O)c1cc2c(-c3ccc(C#N)cc3C)nc(N)nc2s1` [Example 84], the concentration for half-maximal inhibition (IC50) was < 10 µM.

As to `CCNC(=O)c1cc2c(-c3ccc(C)cc3C)nc(N)nc2s1` [Example 80], the IC50 was < 10 µM.

The assay is the same for the next values; noted with them: fluorescence polarization assay, activity range; read-out: Hsp90 FP IC50.
As to `CN(C)CCCNC(=O)c1cc2c(-c3ccccc3)nc(N)nc2s1` [Example 45], the half-maximal inhibitory concentration (IC50) was > 10 µM. Take `CCOC(=O)c1cc2c(/C=C/C(C)(C)C)nc(N)nc2s1` [Example 289]: the IC50 is > 10 µM. As for `Nc1nc(-c2ccc(Cl)cc2Cl)c2cc(C(=O)NCc3ccccn3)sc2n1` [Example 154], the concentration for half-maximal inhibition (IC50) was < 10 µM. Regarding `CCNC(=O)c1cc2c(-c3cc(OCC4CCCCN4C)c(Cl)cc3Cl)nc(N)nc2s1` (stereo not shown) [Example 273, 2-Amino-4-[2,4-dichloro-5-(1-methyl-piperidin-2-ylmethoxy)-phenyl]-thieno[2,3d]pyrimidine-6-carboxylic acid ethylamide], the IC50 is < 10 µM. On to `CCOC(=O)c1sc2nc(N)nc(-c3ccccc3)c2c1Br` [Example 99], for which the half-maximal inhibitory concentration (IC50) is > 10 µM. Consider `CCNC(=O)c1cc2c(-c3cccc(OCCN(CC)CC)c3)nc(N)nc2s1` [Example 260], for which the IC50 is < 10 µM. The same measure, in the same setting: as for `CCOC(=O)c1cc2c(-c3ccc(CN4CCCCC4)cc3)nc(N)nc2s1` [Example 33, 2-Amino-4-(4-piperidin-1-ylmethyl-phenyl)-thieno[2,3-d]pyrimidine-6-carboxylic acid ethyl ester], the figure is > 10 µM; as for `Nc1nc(-c2ccc(Cl)cc2Cl)c2cc(C(=O)Nc3ccc(S(N)(=O)=O)cc3)sc2n1` [Example 108], < 10 µM; as for `CCNC(=O)c1cc2c(-c3cc(CNCCO)ccc3C)nc(N)nc2s1` [Example 205], < 10 µM. As to `CCNC(=O)c1cc2c(-c3cc(CNCc4ccccn4)ccc3C)nc(N)nc2s1` [Example 216], the IC50 was < 10 µM. Consider `CCOC(=O)c1cc2c(-c3cccc(C(N)=O)c3)nc(N)nc2s1` [Example 40], for which the IC50 was > 10 µM.

Regarding `CCOC(=O)c1cc2c(C#N)nc(N)nc2s1` [Example 319, 2-Amino-4-cyano-thieno[2,3-d]pyrimidine-6-carboxylic acid ethyl ester], the 50% inhibitory concentration (IC50) was < 10 µM. Regarding `CCOC(=O)c1cc2c(NC3CCCCC3)nc(N)nc2s1` [Example 24], the IC50 is > 10 µM. Still for that read-out and setting: as for `CCOC(=O)c1cc2c(-c3ccccc3Br)nc(N)nc2s1` [Example 97], the figure is < 10 µM; as for `CCOC(=O)c1cc2c(-c3ccc(OCCN(CC)CC)cc3C)nc(N)nc2s1` [Example 190], > 10 µM; as for `COc1ccc(CNC(=O)c2cc3c(-c4ccc(Cl)cc4Cl)nc(N)nc3s2)cc1` [Example 118], < 10 µM. For `Nc1nc(-c2ccccc2)c2cc(C(=O)NCCc3cccs3)sc2n1` [Example 55], the IC50 was > 10 µM.

Turning to `C[C@H](NC(=O)c1cc2c(-c3ccc(Cl)cc3Cl)nc(N)nc2s1)c1ccccc1` [Example 139], the IC50 was < 10 µM. Consider `NC(=O)c1ccc(NC(=O)c2cc3c(-c4ccc(Cl)cc4Cl)nc(N)nc3s2)cc1` [Example 110], for which the concentration for half-maximal inhibition (IC50) is < 10 µM. The same measure, in the same setting: the same measure for `CCNC(=O)c1cc2c(-c3cc(CNCC(N)=O)ccc3C)nc(N)nc2s1` [Example 219]: < 10 µM; for `CCOC(=O)c1cc2c(-c3ccc(CN4CCCC4)cc3)nc(N)nc2s1` [Example 30]: > 10 µM; for `C=CCOc1ccc(-c2nc(N)nc3sc(C(=O)OCC)cc23)c(C)c1` [Example 187]: < 10 µM. In the case of `Nc1nc(-c2ccc(Cl)cc2Cl)c2cc(C(=O)Nc3ccc(S(=O)(=O)O)cc3)sc2n1` [Example 112], the IC50 is < 10 µM. As to `CCOC(=O)c1cc2c(NC(c3ccccc3)c3ccccc3)nc(N)nc2s1` [Example 25], the 50% inhibitory concentration (IC50) was > 10 µM.

With `CCOC(=O)c1cc2c(-c3ccc(C)cc3C)nc(N)nc2s1` [Example 34], the concentration for half-maximal inhibition (IC50) is < 10 µM. With `CNC(=O)c1cc2c(N(C)Cc3ccccc3)nc(N)nc2s1` [Example 67], the IC50 is > 10 µM. Turning to `CCOC(=O)c1cc2c(-c3ccc(O)cc3C)nc(N)nc2s1` [Example 184, 2-Amino-4-(4-hydroxy-2-methyl-phenyl)-thieno[2,3-d]pyrimidine-6-carboxylic acid ethyl ester], the IC50 was < 10 µM. For the molecule `CCNC(=O)c1cc2c(-c3cc(CNCc4ccco4)ccc3C)nc(N)nc2s1` [Example 210], the half-inhibitory concentration (IC50) is < 10 µM.

As to `NC(=O)CNC(=O)c1cc2c(-c3ccccc3)nc(N)nc2s1` [Example 71], the 50% inhibitory concentration (IC50) was < 10 µM. As for `Nc1nc(-c2ccccc2)c2cc(C(=O)NCCCO)sc2n1` [Example 53], the 50% inhibitory concentration (IC50) was < 10 µM.

For the molecule `C=Cc1ccc(-c2nc(N)nc3sc(C(=O)OCC)cc23)c(C)c1` [Example 168], the half-inhibitory concentration (IC50) is < 10 µM. `CCOC(=O)c1cc2c(-c3ccc(C)cc3)nc(N)nc2s1` [Example 11]: the IC50 was < 10 µM. `CCOC(=O)c1cc2c(-c3ccc(OCC)cc3Cl)nc(N)nc2s1` [Example 78]: the 50% inhibitory concentration (IC50) is < 10 µM.

As for `CCNC(=O)c1cc2c(-c3ccc(C)cc3Cl)nc(N)nc2s1` [Example 152], the half-maximal inhibitory concentration (IC50) is < 10 µM. Still for that read-out and setting: as for `CCNC(=O)c1cc2c(-c3cc(OCCNC4CCCCC4)c(Cl)cc3Cl)nc(N)nc2s1` [Example 245], the figure is < 10 µM; as for `Nc1nc(-c2ccc(Cl)cc2Cl)c2cc(C(=O)NCc3ccc(Cl)cc3)sc2n1` [Example 121], < 10 µM. For `Nc1nc(-c2ccccc2)c2cc(C(=O)N3CCOCC3)sc2n1` [Example 70], the IC50 was > 10 µM. As to `CCOC(=O)c1cc2c(-c3ccc(C(F)(F)F)cc3C(F)(F)F)nc(N)nc2s1` [Example 4], the IC50 is < 10 µM. On to `CCNC(=O)c1cc2c(-c3cc(CNCC4CCCO4)ccc3C)nc(N)nc2s1` (stereo not shown) [Example 212], for which the IC50 is < 10 µM. With `CCNC(=O)c1cc2c(-c3cc(OCC(C)CN(C)C)c(Cl)cc3Cl)nc(N)nc2s1` (stereo not shown) [Example 256], the half-maximal inhibitory concentration (IC50) was < 10 µM. For the molecule `CCOC(=O)c1cc2c(C(C)c3ccccc3)nc(N)nc2s1` (stereo not shown) [Example 285], the half-maximal inhibitory concentration (IC50) is < 10 µM. On to `CCN(CC)CCOc1cc(-c2nc(N)nc3sc(C(=O)NC(C)(C)C)cc23)c(Cl)cc1Cl` [Example 265], for which the IC50 was < 10 µM. As for `CCOC(=O)c1cc2c(C(=O)c3ccc4c(c3)OCCO4)nc(N)nc2s1` [Example 312], the IC50 is < 10 µM. `CN1CCC(NC(=O)c2cc3c(-c4ccc(Cl)cc4Cl)nc(N)nc3s2)CC1` [Example 137]: the IC50 is < 10 µM. On the same count and under the same terms, the same measure for `Nc1nc(-c2ccc(Cl)cc2Cl)c2cc(C(=O)NCCO)sc2n1` [Example 136]: < 10 µM; for `CCNC(=O)c1cc2c(-c3cc(CNCc4cccnc4)ccc3C)nc(N)nc2s1` [Example 217]: < 10 µM. Turning to `CCNC(=O)c1cc2c(-c3cc(OCc4cc(=O)[nH]c(=O)[nH]4)c(Cl)cc3Cl)nc(N)nc2s1` [Example 268], the IC50 was < 10 µM. Turning to `CCNCc1ccc(C)c(-c2nc(N)nc3sc(C(=O)NCC)cc23)c1` [Example 206], the half-inhibitory concentration (IC50) is < 10 µM.

Turning to `CCNC(=O)c1cc2c(-c3cc(CNCc4ccccc4)ccc3C)nc(N)nc2s1` [Example 200], the IC50 was < 10 µM. For `CCOC(=O)c1cc2c(-c3csc4ccccc34)nc(N)nc2s1` [Example 290], the IC50 is > 10 µM. On to `CCOC(=O)c1cc2c(/C=C/c3ccccc3)nc(N)nc2s1` [Example 278], for which the concentration for half-maximal inhibition (IC50) was < 10 µM. Turning to `CCNC(=O)c1cc2c(-c3cc(OCc4ccccc4)c(Cl)cc3Cl)nc(N)nc2s1` [Example 241], the concentration for half-maximal inhibition (IC50) was < 10 µM. As for `Nc1nc(-c2ccc(Cl)cc2Cl)c2cc(C(=O)NC(CO)CO)sc2n1` [Example 127], the concentration for half-maximal inhibition (IC50) is < 10 µM. In the case of `CCOC(=O)c1cc2c(-c3ccc(OCc4ccccc4)cc3C)nc(N)nc2s1` [Example 90], the IC50 is > 10 µM.

As for `CCOC(=O)c1cc2c(C(=O)c3cccc(Cl)c3)nc(N)nc2s1` [Example 304], the half-inhibitory concentration (IC50) was < 10 µM. Same read-out and setting: as for `CCC(C)NC(=O)c1cc2c(-c3ccccc3)nc(N)nc2s1` (stereo not shown) [Example 59], the figure is > 10 µM; as for `CCNC(=O)c1cc2c(-c3cccc(OCc4ccccc4)c3)nc(N)nc2s1` [Example 243], < 10 µM. On to `CCOC(=O)c1cc2c(-c3cc(C=O)ccc3C)nc(N)nc2s1` [Example 196, 2-Amino-4-(5-formyl-2-methyl-phenyl)-thieno[2,3-d]pyrimidine-6-carboxylic acid ethyl ester], for which the concentration for half-maximal inhibition (IC50) was < 10 µM. As to `CNC(=O)c1cc2c(Oc3ccccc3)nc(N)nc2s1` [Example 27], the half-inhibitory concentration (IC50) was > 10 µM. With `Nc1nc(-c2ccc(Cl)cc2Cl)c2cc(C(=O)Nc3ccc(F)cc3)sc2n1` [Example 135], the 50% inhibitory concentration (IC50) was < 10 µM. On to `CCOC(=O)c1cc2c(-c3ccc(CN4CCOCC4)cc3)nc(N)nc2s1` [Example 41], for which the IC50 was > 10 µM. For the molecule `CCOC(=O)c1cc2c(-c3ccccc3C)nc(N)nc2s1` [Example 15], the IC50 was < 10 µM.

As to `CCCNCc1ccc(C)c(-c2nc(N)nc3sc(C(=O)NCC)cc23)c1` [Example 197, 2-Amino-4-(2-methyl-5-propylaminomethyl-phenyl)-thieno[2,3-d]pyrimidine-6-carboxylic acid ethylamide], the IC50 is < 10 µM. Still for that read-out and setting: the same measure for `CCOC(=O)c1cc2c(-c3ccc(OCC(C)C)cc3C)nc(N)nc2s1` [Example 189]: > 10 µM. As to `CCOC(=O)c1cc2c(C(C#N)c3ccc4c(c3)OCO4)nc(N)nc2s1` (stereo not shown) [Example 316, 2-Amino-4-(benzo[1,3]dioxol-5-yl-cyano-methyl)-thieno[2,3-d]pyrimidine-6-carboxylic acid ethyl ester], the IC50 is < 10 µM. Still for that read-out and setting: as for `Nc1nc(-c2ccc(Cl)cc2Cl)c2cc(C(=O)NCc3cccc(C(F)(F)F)c3)sc2n1` [Example 122], the figure is < 10 µM. Turning to `CCCNC(=O)c1ccc(C)c(-c2nc(N)nc3sc(C(=O)NC4CC4)cc23)c1` [Example 183], the IC50 was < 10 µM. For `CCOC(=O)c1cc2c(C(=O)c3ccc(C)c(C)c3)nc(N)nc2s1` [Example 306], the IC50 was < 10 µM.
